Laboratory results: patent publication US7250157B2, “Dermatological compositions and methods” (Applied Genetics Incorporated Dermatics, priority 1996, dated 2007)
Several values for one entry are separate records, joined by “and”; a condition that tells them apart may be missing. Equal entries are not always repeated.

How the values were obtained:
[1] = tested on: Cloudman S91 mouse melanoma cell line; assay: Melanin content of S91 cells after treatment with test compound; type: cell-based
Protocol: The Cloudman S91 mouse melanoma cell line was obtained from American Type Culture Collection (ATCC). […] For testing propylene glycol and analogues for induction of melanogenesis, S91 cells were plated at 10^5 cells/35 mm dish in 10% calf serum. […] Cells were cultured for 6 days at 37° C. in 5% CO2 in a humidified incubator. Following this treatment period, cells were examined microscopically and the portion of dedifferentiated and differentiated cells was estimated.
Following this microscopic examination, cells were detached from dishes by trypsin. The time required for detachment by trypsin was recorded as an additional indicator of the phenotypic effects of test compounds. For each treatment, a subsample of cells was counted to determine the effects of treatment compounds on cellular proliferation. The remainder of cells were used for determination of melanin content. […] Absorbance of standards and samples was measured at 475 nm. Melanin was expressed as pg melanin/cell.

[2] = tested on: American short-haired guinea pigs; assay: Topical melanogenesis (pigmentation rating) in guinea pigs; type: in vivo, guinea pig; parameters: Pigmentation Rating / Pigmentation Rating Background Corrected: scale not given here; details: for Pigmentation Rating Normalized to 1,2-PG / Pigmentation Rating Normalized to 1M / Pigmentation Rating Background Corrected / Pigmentation Rating: No Penetration Enhancer; for Pigmentation Rating Normalized to 1,2-PG / Pigmentation Rating Normalized to 1M / Pigmentation Rating Background Corrected: concentrations as E85; for Pigmentation Rating Background Corrected: corrected for Nair control; for Pigmentation Rating: sites c and d, 11.0M 2,3-M-2,3-BD, 11.3M 2-M-1,3-PG, 8.7M 1,2-cs-CPD, 4.0M 3,3-M-1,2-BD; for greater melanogenesis than PG applied at similar body locations: guinea pig, 5 days; for relative melanogenesis rating (mean ±SE), scale 0-4: 25 μl twice per day for 5 days, rated two weeks after
Protocol: Compounds were tested for melanogenic activity in vivo by application to American short-haired guinea pigs. Treatment sites were created by removal of fur using Nair® brand depilatory. In the Table, the numbers presented are the relative melanogenesis rating (mean ±SE), and are arranged according to the relative location on the animal, with the head being to the left and the tail being to the right. Propylene glycol (PG=13.6M), 2,3-butanediol (2,3-BD=10.95M), and 1,2-cis-cyclopentanediol (1,2-cs-CPD=10.7M) were applied as full strength solutions. 3,3-dimethyl-1,2-butanediol (3,3-M-1,2-BD) was applied as a 4M solution dissolved in ethanol. Two weeks following cessation of treatments, the degree of pigmentation was subjectively rated according to the following scale:
In order to minimize the effects of dimunition of response from head to tails of animals, all future experiments were done using only treatment spots located towards the tails of animals (c and d in Table 7). Deemed as additionally beneficial, in this area of the animal differences of responsiveness to strong and weak inducers of pigmentation, as deduced from cell culture, were greatest. […] Pigmentation ratings were corrected for background (control treatment spots), normalized to 1M to account for the different amounts of each agent applied, and then normalized to results for 1,2-PG (Table 8). […] It is anticipated that further improvements in formulation will additionally improve responsiveness to 5-NBene-2,2-DM and other compounds in this invention.
In FIG. 5, a, b, c and d indicate treatment spots that transverse the anterior-posterior axis along the backs of guinea pigs.

[3] = tested on: Normal human epidermal melanocytes (NHEMs); assay: Melanin induction in normal human epidermal melanocytes; type: cell-based
Protocol: Normal human epidermal melanocytes (NHEMs) were examined for induction of melanogenesis using cells and media from Clonetics Corporation (San Diego, Calif.). Cells were cultured exactly as specified by the supplier.

[4] = tested on: tyrosinase activity in S91 mouse melanoma cells; assay: Induction of tyrosinase activity in S91 cells; details: 300 mM PG-1,2; 25 mM 3,3-M-1,2-BD; 50 mM 1,2-cs-CPD; 5 mM 5-NBene-2,2-DM; 0.5 mM 2,3-Pyd; 0.1 mM IBMX; mean ±SE
Protocol: Compounds were examined for their ability to induce tyrosinase activity in S91 mouse melanoma cells. […] Following treatments, cells were trypsinized, counted by Coulter, pelleted by centrifugation at 1000×g, and analyzed for tyrosinase activity using modifications of previously described procedures (Pomerantz, S. H., 1966, J. Biol. Chem. 241:161-168; Jara, et al., 1988, Pigment Cell Res. 1: 332-339.). Briefly, cell pellets were solubilized by sonicating for 5 seconds in 600 ul 50 mM phosphate buffer pH 6.8 containing 0.5% Triton-X100, followed by vortexing, incubation on ice for 30 min, and then revortexing. From this, 200 ul aliquots were combined with 200 ul of reaction mixture containing either 75 uM tyrosine, 75 uM L-Dopa, and 2 uCi L-[3,5-^3H]Tyrosine in 50 mM NaPO4 pH 6.8 (L-Dopa+), or, 75 uM tyrosine, and 2 uCi L-[3,5-^3H]Tyrosine in 50 mM NaPO4 pH 6.8 (L-Dopa−) and incubated 1 hr at 37° C. Reactions were stopped by addition of 400 ul 10% activated charcoal in 0.1N HCl and incubation on ice for 15 min. This mixture was centrifuged at 17,300×g for 5 min, and 400 ul supernatant was then filtered through a 0.22 uM GV Durapore centifugal filter unit (Millipore) by centrifuging at 17,300×g for 5 min. Filtrate was added to 4 ml Fisher Plus scintillation fluid and counted on a Hewlett Packard scintillation counter. Tyrosinase activity was calculated as dpm/hr/ug protein and dpm/hr/10^3 cells. Each sample was analyzed with and without L-Dopa, a necessary cofactor for tyrosinase (Pomerantz, S. H., 1966, J. Biol. Chem. 241:161-168; McLane, et al., 1987, Biochem. Biophys. Res. Commun. 145:719-725). All reported tyrosinase values are exclusive of counts that occurred in buffer blanks and L-dopa negative aliquots. Protein was determined on aliquots of cell lysate, extracellular particulate lysate or media by the Bradford Coomassie Blue method (Bradford, 1967, Anal. Biochem. 72:248-254) using Bio-Rad Protein Assay Kit I.

[5] = tested on: Cloudman S91 mouse melanoma cell line; assay: Cell count (proliferation, toxicity) of treated S91 cells; type: cell-based
Protocol: The Cloudman S91 mouse melanoma cell line was obtained from American Type Culture Collection (ATCC). Cells were cultured in Dulbecco's Modified Eagles Medium (DMEM) containing 10% calf serum, 2 mM L-glutamine, 10 U Penicillin/ml and 10 ug Streptomycin/ml according to a previously published protocol (Eller, et al., Proc. Natl. Acad. Sci. 93:1087-92. 1996). For testing propylene glycol and analogues for induction of melanogenesis, S91 cells were plated at 10^5 cells/35 mm dish in 10% calf serum. One day after plating, media was removed and replaced with media containing 2% calf serum and test compounds (Eller, et al., 1996). Cells were cultured for 6 days at 37° C. in 5% CO2 in a humidified incubator. Following this treatment period, cells were examined microscopically and the portion of dedifferentiated and differentiated cells was estimated. Previous studies have shown that dedifferentiated S91 cells have a rounded, spindly appearance while differentiated S91 cells have a flattened, cuboidal, multipolar and dendritic appearance (Orlow, et al., Exp. Cell Res. 191:209-218, 1990).
Following this microscopic examination, cells were detached from dishes by trypsin. The time required for detachment by trypsin was recorded as an additional indicator of the phenotypic effects of test compounds. For each treatment, a subsample of cells was counted to determine the effects of treatment compounds on cellular proliferation. The remainder of cells were used for determination of melanin content. Melanin was extracted from cells by vortexing for 15 min in 1N NaOH. Standards were prepared by dissolving melanin (Sigma) in 1 N NaOH (Eller, et al., 1996). Absorbance of standards and samples was measured at 475 nm. Melanin was expressed as pg melanin/cell.

[6] = tested on: Tyrosinase in normal human epidermal melanocytes (NHEM); assay: Tyrosinase in NHEM (in situ, cellular, extracellular particulate, media); type: cell-based
Protocol: Tyrosinase was measured in normal human epidermal melanocytes (NHEM) using procedures identical to those described for S91 cells (Example 6), […], 1600×g, or 17,300×g for analysis of tyrosinase activity in the extracellular exported melanosomal particulate fraction, and in the resultant supernatant media fraction. In some cases (Table 11), tyrosinase was also measured by an in situ assay wherein radiolabelled tyrosine was added directly to freshly replaced media of NHEM for a period of 24 hrs following a 5 day treatment period (Abdel-Malek, et al., 1992, J. Cell. Physiol. 150:416-425). […] Both 5 mM 5-NBene-2,2-DM and 25 mM 3,3-M-1,2-BD induced more tyrosinase in each of these assays and fractions than did 1,2-PG. IBMX (3-isobutyl-1-methyl-xanthine) provided as a positive control, induced as much tyrosinase as 5 mM 5-NBene-2,2-DM in the in situ assay, but less in cellular, extracellular particulate and media fractions (Table 11).

[7] = range of concentrations up to a toxic dose
[8] = 5 day treatment, concentrations as E130
[9] = pair of replicates, concentrations as E130

SMILES | Concentration Required for ≧2-fold Melanin Induction in S91 Cells [1] | Pigmentation Rating Normalized to 1,2-PG [2] | Pigmentation Rating Normalized to 1M [2] | Pigmentation Rating Background Corrected [2] | Pigmentation Rating ([2]; 13.61M 1,2-PG) | Concentration Required for ≧1.5-fold Melanin Induction in NHEMs [3] | Tyrosinase dpm/hr 10^3 Cells [4] | Tyrosinase dpm/hr ug Protein [4] | greater melanogenesis than PG applied at similar body locations [2] | also measured
CC(C)(O)C(C)(C)O [2,3-M-2,3-BD, 2,3-dimethyl-2,3-butanediol] | 25 mM | 1.0 ± 0.6 | 0.015 ± 0.008 | 0.17 ± 0.09 | 0.25 ± 0.14 | 50 mM | – | – | – | pigmentation response versus control (Nair or 2% 2P treated) spots ([2]; sites towards tail, 13.61M 1,2-PG, 10.6M 1,2-PG/2% 2P, 11M 2,3-dimethyl-2,3-butanediol): not significantly different from control
O=C[C@H](O)[C@H](O)[C@H](O)CO [D-ribose] | – | – | – | – | – | – | – | – | – | melanogenesis in S91 cells (≧2-fold increase = significant) [1, 7]: did not induce significant (≧2-fold increase) melanogenesis; melanin induction in NHEMs (in words) [3, 7]: inactive
O[C@@H]1CCC[C@@H]1O [1,2-cs-CPD, 1,2-cis-cyclopentanediol] | 10 mM | 13.5 ± 1.9 | 0.202 ± 0.029 | 1.75 ± 0.25 | 1.89 ± 0.27 | 50 mM | 276 ± 16 dpm/hr/10^3 Cells | 925 ± 53 dpm/hr/ug Protein | 5.5 fold | relative melanogenesis rating (mean ±SE), scale 0-4 ([2]; site d (tail), full strength solutions): 1.83 ± 0.33^2; Pigmentation Ratings (X ± SE; n = 6; scale 0 to +4) ([2]; spot a (anterior), 8.7M 1,2-cis-CPD in 20% ETOH, 1M 5-NBene-2,2-DM in 8.5 M propylene glycol, 2% 2-pyrrolidone, 20% ETOH, 1M 2,3-cs/ex PD in 50% ETOH): 1.83 ± 0.17; Pigmentation Ratings (X ± SE; n = 6; scale 0 to +4) ([2]; spot b, formulations as E220): 1.92 ± 0.43; Pigmentation Ratings (X ± SE; n = 6; scale 0 to +4) ([2]; spot c, formulations as E220): 1.92 ± 0.20; Pigmentation Ratings (X ± SE; n = 6; scale 0 to +4) ([2]; spot d (posterior), formulations as E220): 1.58 ± 0.24
Oc1cccnc1O [2,3-Pyridinediol, 2,3-pyridinediol] | 0.1 mM | – | – | – | – | 0.2 mM | 142 ± 8 dpm/hr/10^3 Cells | 160 ± 19 dpm/hr/ug Protein | – | toxicity to S91 cells ([5]; levels higher than 500 uM): toxic
CC(C)(C)C(O)CO (stereo not shown) [3,3-M-1,2-BD, 3,3-dimethyl-1,2-butanediol] | 10 mM | 18.1 ± 6.8 | 0.272 ± 0.102 | 1.09 ± 0.41 | 1.17 ± 0.44 | 12.5 mM | 1211 ± 38 dpm/hr/10^3 Cells | 1746 ± 220 dpm/hr/ug Protein | 4.5 fold | Tyrosinase In Situ ([6]; 5 day treatment, 300 mM 1,2-PG, 25 mM 3,3-M-1,2-BD, 5 mM 5-NBene-2,2-DM, 0.1 mM IBMX): 20.5 dpm/hr/10^3 Cells and 21.0 dpm/hr/10^3 Cells; Tyrosinase 200 g Partic [6, 8]: 1646 dpm/hr/10^3 Cells and 2226 dpm/hr/10^3 Cells; Tyrosinase Cellular [6, 8]: 11728 dpm/hr/10^3 Cells and 11730 dpm/hr/10^3 Cells; Tyrosinase 17300 g Partic ([6]; Post 200 X g, 5 day treatment, concentrations as E130): 536 dpm/hr/10^3 Cells and 425 dpm/hr/10^3 Cells; Tyrosinase Media ([6]; Post 17300 X g, 5 day treatment, concentrations as E130): 5495 dpm/hr/10^3 Cells and 3056 dpm/hr/10^3 Cells; Tyrosinase 200 g Partic, relative to controls (in parentheses) [6, 9]: (5.64X); Tyrosinase 17300 g Partic, relative to controls (in parentheses) [6, 9]: (4.20X); Tyrosinase Cellular, relative to controls (in parentheses) [6, 9]: (1.15X); Tyrosinase In Situ, relative to controls (in parentheses) [6, 9]: (1.31X); Tyrosinase Media, relative to controls (in parentheses) [6, 9]: (2.75X); relative melanogenesis rating (mean ±SE), scale 0-4 ([2]; site c, full strength, 3,3-M-1,2-BD 4M in ethanol): 1.16 ± 0.66^2; toxicity to S91 cells ([5]; concentrations that induce much higher levels of tyrosinase): nontoxic
